A word on the pIC50: it is the negative decadic logarithm of the IC50, by convention in mol/L.

pIC50: −log10 of the molar value.

T1 sequence (P08069 31-1367): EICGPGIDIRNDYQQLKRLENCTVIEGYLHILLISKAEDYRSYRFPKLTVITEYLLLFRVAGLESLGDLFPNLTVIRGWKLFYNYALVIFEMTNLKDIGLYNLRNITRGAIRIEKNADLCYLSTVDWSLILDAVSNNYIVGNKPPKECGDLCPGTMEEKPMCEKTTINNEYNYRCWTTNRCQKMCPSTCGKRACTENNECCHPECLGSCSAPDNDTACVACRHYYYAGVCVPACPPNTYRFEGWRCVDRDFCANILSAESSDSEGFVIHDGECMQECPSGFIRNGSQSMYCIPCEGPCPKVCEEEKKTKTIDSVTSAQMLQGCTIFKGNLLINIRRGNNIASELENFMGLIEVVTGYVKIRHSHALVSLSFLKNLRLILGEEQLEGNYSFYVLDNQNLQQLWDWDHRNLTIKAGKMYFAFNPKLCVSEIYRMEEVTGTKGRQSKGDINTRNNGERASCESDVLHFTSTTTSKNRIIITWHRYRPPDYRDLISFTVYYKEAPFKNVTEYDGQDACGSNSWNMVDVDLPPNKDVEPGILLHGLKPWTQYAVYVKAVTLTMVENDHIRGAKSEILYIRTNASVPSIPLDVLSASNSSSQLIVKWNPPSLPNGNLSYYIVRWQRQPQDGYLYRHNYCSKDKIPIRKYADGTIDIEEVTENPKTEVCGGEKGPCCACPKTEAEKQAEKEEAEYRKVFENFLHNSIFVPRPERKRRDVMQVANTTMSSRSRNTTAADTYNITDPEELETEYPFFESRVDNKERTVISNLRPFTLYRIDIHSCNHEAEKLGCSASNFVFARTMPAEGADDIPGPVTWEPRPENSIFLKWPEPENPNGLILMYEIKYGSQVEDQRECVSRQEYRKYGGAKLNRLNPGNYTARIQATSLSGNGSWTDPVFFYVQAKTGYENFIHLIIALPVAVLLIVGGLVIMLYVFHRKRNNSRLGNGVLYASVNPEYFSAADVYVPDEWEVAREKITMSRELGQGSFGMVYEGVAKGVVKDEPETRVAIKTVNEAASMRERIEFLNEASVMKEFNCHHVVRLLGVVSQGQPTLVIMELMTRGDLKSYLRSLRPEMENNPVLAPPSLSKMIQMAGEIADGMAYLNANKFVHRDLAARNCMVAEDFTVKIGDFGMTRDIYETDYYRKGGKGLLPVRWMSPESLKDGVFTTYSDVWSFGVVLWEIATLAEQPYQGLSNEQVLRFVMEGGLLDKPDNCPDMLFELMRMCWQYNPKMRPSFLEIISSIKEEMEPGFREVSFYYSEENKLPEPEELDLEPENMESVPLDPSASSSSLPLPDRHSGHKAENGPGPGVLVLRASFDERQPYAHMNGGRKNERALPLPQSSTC

This test concerns the target T1, IGF-1R (Homo sapiens, UniProt P08069).
T1 construct: expressed in transfected cells
Put plainly: Example B-1: IGF-1R Assay (PC3 cells stimulated with IGF1, AlphaLISA on cell lysates). Format: cell-based. As to conditions: compound two hours, IGF1 200 ng/mL for 30 min, read-out: IC50, Biological Activity against IGF-1R (Table B1). The method in brief: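 PC3 cells serum-starved 2 h, treated 2 h with 3-fold serially diluted compound, then stimulated 30 min with IGF1 (200 ng/mL final). Lysates analysed by AlphaLISA; % inhibition calculated relative to vehicle and EC80 controls, IC50 derived.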
(Alpha assays give light when donor and acceptor beads are brought close together.)
For the molecule `CC(C)(C)c1ccc(N2C(=O)N(Cc3ccnc(NC4CCOCC4)c3)C(C)(C)C2=O)cc1` [Compound 266, 3-(4-(tert-butyl)phenyl)-5,5-dimethyl-1-((2-((tetrahydro-2H-pyran-4-yl)amino)pyridin-4-yl)methyl)imidazolidine-2,4-dione], the pIC50 is at least 6.30.
In the case of `CC1(c2ccc(N3C(=O)N(Cc4ccnc(N)c4)C(C)(C)C3=O)cc2)COC1` [Compound 90, 1-((2-aminopyridin-4-yl)methyl)-5,5-dimethyl-3-(4-(3-methyloxetan-3-yl)phenyl)imidazolidine-2,4-dione], the pIC50 is 5.70 to 6.30.
For the molecule `COC[C@H](C)Nc1cc(CN2C(=O)N(c3ccc(C(C)(C)C)cc3)C(=O)C2(C)C)ccn1` [Compound 269, (S)-3-(4-(tert-butyl)phenyl)-1-((2-((1-methoxypropan-2-yl)amino)pyridin-4-yl)methyl)-5,5-dimethylimidazolidine-2,4-dione], the pIC50 was at least 6.30.
For `Nc1cc(CN2C(=O)N(c3ccc(SC(F)(F)F)cc3)C(=O)C23CCC3)ccn1` [Compound 292, 5-((2-aminopyridin-4-yl)methyl)-7-(4-((trifluoromethyl)thio)phenyl)-5,7-diazaspiro[3.4]octane-6,8-dione] the value was 5.70 to 6.30; for `CC(C)Nc1cc(CN2C(=O)N(c3ccc(C45CC(C)(C4)C5)cc3)C(=O)C2(C)C)ccn1` [Compound 112, 1-((2-(isopropylamino)pyridin-4-yl)methyl)-5,5-dimethyl-3-(4-(3-methylbicyclo[1.1.1]pentan-1-yl)phenyl)imidazolidine-2,4-dione], 5.00 to 5.70; for `CN1CCC(NC(=O)Nc2cc(CN3C(=O)N(c4ccc(SC(F)(F)F)cc4)C(=O)C3(C)C)ccn2)CC1` [Compound 309, 1-(4-((5,5-dimethyl-2,4-dioxo-3-(4-((trifluoromethyl)thio)phenyl)imidazolidin-1-yl)methyl)pyridin-2-yl)-3-(1-methylpiperidin-4-yl)urea], at least 6.30.
Turning to `CC1(C)C(=O)N(c2ccc(SC(F)(F)F)cc2)C(=O)N1Cc1ccnc(NC(=O)NC2CCOC2)c1` (stereo not drawn) [Compound 303, 1-(4-((5,5-dimethyl-2,4-dioxo-3-(4-((trifluoromethyl)thio)phenyl)imidazolidin-1-yl)methyl)pyridin-2-yl)-3-(tetrahydrofuran-3-yl)urea], the pIC50 is at least 6.30.
For `CC1(C)C(=O)N(c2ccc(C3(C#N)CC3)cc2)C(=O)N1Cc1ccnc(N)c1` [Compound 82, 1-(4-(3-((2-aminopyridin-4-yl)methyl)-4,4-dimethyl-2,5-dioxoimidazolidin-1-yl)phenyl)cyclopropane-1-carbonitrile], the pIC50 was at least 6.30.
Regarding `CC1(C)C(=O)N(c2ccc(SC(F)(F)F)cc2)C(=O)N1Cc1ccnc(NC2CCCC2)c1` [Compound 369, 1-((2-(cyclopentylamino)pyridin-4-yl)methyl)-5,5-dimethyl-3-(4-((trifluoromethyl)thio)phenyl) imidazolidine-2,4-dione], the pIC50 is at least 6.30.
For `CC1(C)Cc2cc(CN3C(=O)N(c4ccc(SC(F)(F)F)cc4)C(=O)C3(C)C)cnc2N1` [Compound 14, 1-((2,2-dimethyl-2,3-dihydro-1H-pyrrolo[2,3-b]pyridin-5-yl)methyl)-5,5-dimethyl-3-(4-((trifluoromethyl)thio)phenyl)imidazolidine-2,4-dione] the value was below 5.00.
For `CC1(C)C(=O)N(c2ccc(SC(F)(F)F)cc2)C(=O)N1Cc1ccnc(NC(=O)C2NCC23CCCCC3)c1` (stereo not drawn) [Compound 305, N-(4-((5,5-dimethyl-2,4-dioxo-3-(4-((trifluoromethyl)thio)phenyl)imidazolidin-1-yl)methyl)pyridin-2-yl)-2-azaspiro[3.5]nonane-1-carboxamide] the value was 5.00 to 5.70; for `CC(C)Nc1cc(CN2C(=O)N(c3ccc(C4(C)CCC4)cc3)C(=O)C2(C)C)ccn1` [Compound 101, 1-((2-(isopropylamino)pyridin-4-yl)methyl)-5,5-dimethyl-3-(4-(1-methylcyclobutyl)phenyl)imidazolidine-2,4-dione], at least 6.30.
For `CC(C)(C)c1ccc(N2C(=O)N(Cc3ccnc(-c4ccccc4)c3)C(C)(C)C2=O)cc1` [Compound 346, 3-(4-(tert-butyl)phenyl)-5,5-dimethyl-1-((2-phenylpyridin-4-yl)methyl)imidazoline-2,4-dione] the value was 5.70 to 6.30; for `CC1(C)C(=O)N(c2ccc(SC(F)(F)F)cc2)C(=O)N1Cc1ccnc(NC(=O)Nc2ccccc2F)c1` [Compound 375, 1-(4-((5,5-dimethyl-2,4-dioxo-3-(4-((trifluoromethyl)thio)phenyl)imidazolidin-1-yl)methyl)pyridin-2-yl)-3-(2-fluorophenyl)urea], at least 6.30.
For `Cc1cccc(NC(=O)Nc2cc(CN3C(=O)N(c4ccc(SC(F)(F)F)cc4)C(=O)C3(C)C)ccn2)c1` [Compound 372, 1-(4-((5,5-dimethyl-2,4-dioxo-3-(4-((trifluoromethyl)thio)phenyl)imidazolidin-1-yl)methyl)pyridin-2-yl)-3-(m-tolyl)urea], the pIC50 was at least 6.30.
Take `CC1(C)C(=O)N(c2ccc(SC(F)(F)F)cc2)C(=O)N1Cc1ccnc(NC(=O)C2CC3(CNC3)C2)c1` [Compound 302, N-(4-((5,5-dimethyl-2,4-dioxo-3-(4-((trifluoromethyl)thio)phenyl)imidazolidin-1-yl)methyl)pyridin-2-yl)-2-azaspiro[3.3]heptane-6-carboxamide]: the pIC50 was at least 6.30.
For the molecule `CC(C)Nc1cc(CN2C(=O)N(c3ccc(SC(F)(F)F)cc3)C(=O)C2(C)C)cnn1` [Compound 386, 1-((6-(isopropylamino)pyridazin-4-yl)methyl)-5,5-dimethyl-3-(4-((trifluoromethyl)thio)phenyl) imidazolidine-2,4-dione], the pIC50 was 5.00 to 5.70.
For `COc1ccc(NC(=O)Nc2cc(CN3C(=O)N(c4ccc(SC(F)(F)F)cc4)C(=O)C3(C)C)ccn2)cc1` [Compound 363, 1-(4-((5,5-dimethyl-2,4-dioxo-3-(4-((trifluoromethyl)thio)phenyl)imidazolidin-1-yl)methyl)pyridin-2-yl)-3-(4-methoxyphenyl)urea] the value was at least 6.30.
For `CC(C)Nc1cc(CN2C(=O)N(c3ccc(SC(F)(F)F)cc3)C(=O)C2(C)C)cc(F)n1` [Compound 383, 1-((2-fluoro-6-(isopropylamino)pyridin-4-yl)methyl)-5,5-dimethyl-3-(4-((trifluoromethyl)thio)phenyl) imidazolidine-2,4-dione] the value was 5.00 to 5.70; for `CC(C)Nc1cc(CN2C(=O)N(c3ccc(C4(F)CC4)cc3)C(=O)C2(C)C)ccn1` [Compound 99, 3-(4-(1-fluorocyclopropyl)phenyl)-1-((2-(isopropylamino)pyridin-4-yl)methyl)-5,5-dimethylimidazolidine-2,4-dione], 5.70 to 6.30; for `CC1(C)C(=O)N(c2ccc(SC(F)(F)F)cc2)C(=O)N1Cc1cccc(Nc2c(Nc3ccccc3)c(=O)c2=O)n1` [Compound 367, 1-((6-((3,4-dioxo-2-(phenylamino)cyclobut-1-en-1-yl)amino)pyridin-2-yl)methyl)-5,5-dimethyl-3-(4-((trifluoromethyl)thio)phenyl) imidazolidine-2,4-dione], 5.70 to 6.30.
For `Nc1cc(CN2C(=O)N(c3ccc(SC(F)(F)F)cc3)C(=O)[C@@H]2C2CCCCC2)ccn1` [Compound 296, (S)-1-((2-aminopyridin-4-yl)methyl)-5-cyclohexyl-3-(4-((trifluoromethyl)thio)phenyl)imidazolidine-2,4-dione] the value was below 5.00; for `CC(C)[C@H]1C(=O)N(c2ccc(S(=O)(=O)C(F)(F)F)cc2)C(=O)N1Cc1ccnc(N)c1` [Compound 300, (S)-1-((2-aminopyridin-4-yl)methyl)-5-isopropyl-3-(4-((trifluoromethyl)sulfonyl)phenyl)imidazolidine-2,4-dione], 5.00 to 5.70.
In the case of `CC(=O)Nc1cc(CN2C(=O)N(c3ccc(SC(F)(F)F)cc3)C(=O)C2(C)C)ncn1` [Compound 365, N-(6-((5,5-dimethyl-2,4-dioxo-3-(4-((trifluoromethyl)thio)phenyl)imidazolidin-1-yl)methyl)pyrimidin-4-yl)acetamide], the pIC50 was at least 6.30.
For `CC(C)Nc1cc(CN2C(=O)N(c3ccc(C45CC(C4)C5)cc3)C(=O)C2(C)C)ccn1` [Compound 117, 3-(4-(bicyclo[1.1.1]pentan-1-yl)phenyl)-1-((2-(isopropylamino)pyridin-4-yl)methyl)-5,5-dimethylimidazolidine-2,4-dione] the value was at least 6.30.
`CC1(C)C(=O)N(c2ccc(C3CCOC3)cc2)C(=O)N1Cc1ccnc(N)c1` (stereo not drawn) [Compound 85, 1-((2-aminopyridin-4-yl)methyl)-5,5-dimethyl-3-(4-(tetrahydrofuran-3-yl)phenyl)imidazolidine-2,4-dione]: the pIC50 was 5.70 to 6.30.
Turning to `CC1(C)C(=O)N(c2ccc(SC(F)(F)F)cc2)C(=O)N1Cc1ccnc(NC2COC2)c1` [Compound 314, 5,5-dimethyl-1-((2-(oxetan-3-ylamino)pyridin-4-yl)methyl)-3-(4-((trifluoromethyl)thio)phenyl) imidazolidine-2,4-dione], the negative logarithm of the IC50 (pIC50) is below 5.00.
Consider `CC(C)[C@H]1C(=O)N(c2ccc(SC(F)(F)F)cc2)C(=O)N1Cc1ccnc(N)c1` [Compound 290, (S)-1-((2-aminopyridin-4-yl)methyl)-5-isopropyl-3-(4-((trifluoromethyl)thio)phenyl)imidazolidine-2,4-dione], for which the pIC50 is below 5.00.
With `CNC(=O)Nc1cc(CN2C(=O)N(c3ccc(SC(F)(F)F)cc3)C(=O)C2(C)C)ccn1` [Compound 361, 1-(4-((5,5-dimethyl-2,4-dioxo-3-(4-((trifluoromethyl)thio)phenyl)imidazolidin-1-yl)methyl)pyridin-2-yl)-3-methylurea], the negative logarithm of the IC50 (pIC50) is at least 6.30.
As to `CC1(C)C(=O)N(c2ccc(SC(F)(F)F)cc2)C(=O)N1Cc1ccnc(NC(=O)NC2COC2)c1` [Compound 308, 1-(4-((5,5-dimethyl-2,4-dioxo-3-(4-((trifluoromethyl)thio)phenyl)imidazolidin-1-yl)methyl)pyridin-2-yl)-3-(oxetan-3-yl)urea], the pIC50 is at least 6.30.

The values are drawn from US20250145585A1, “HETEROCYCLIC INHIBITORS OF IGF-1R FOR TREATMENT OF DISEASE” (HORIZON THERAPEUTICS IRELAND DAC, priority 2023, published 2025).
